According to patent publication US20070049564A1 (Wyeth, priority 2005, published 2007):
Like-named read-outs stand apart in the source and are kept apart here.

Assays:
[1] = test system: S. aureus GC 4536; experiment: MIC, broth microdilution; settings: Staphylococcus aureus
[2] = test system: E. coli GC 6465; experiment: MIC, broth microdilution; settings: Escherichia coli
[3] = test system: S. aureus GC 6466; experiment: MIC, broth microdilution; settings: Staphylococcus aureus
Experimental: Antimicrobial susceptibility testing. The in vitro activities of the antibiotics are determined by the broth microdilution method as recommended by the National Committee for Clinical Laboratory Standards (NCCLS) (1). Mueller-Hinton II broth (MHBII)(BBL Cockeysville, Md.) is the medium employed in the testing procedures. Microtiter plates containing serial dilutions of each antimicrobial agent are inoculated with each organism to yield the appropriate density (10^5 CFU/ml) in a 100 μl final volume. The plates are incubated for 18-22 hours at 35° C. in ambient air. […] Standard Pharmacological Test Procedures
Presented in Tables I-XIII are representative compounds of Formula I which were evaluated against a panel of 40 selected gram-positive and gram-negative bacteria strains by pre-incubation in water, mouse serum or human serum. Representative compounds were first incubated in mouse serum for an hour prior to the in vitro testing against a panel of selected gram-positive and gram-negative bacteria strains. All compounds were also pre-incubated in water for an hour prior to testing as control. Representative compounds of Formula I were incubated in human serum prior to MIC determination.

[4] = test system: E. coli GC 2232; experiment: MIC, broth microdilution; settings: Escherichia coli
[5] = test system: S. pneumoniae* GC 4465; experiment: MIC, broth microdilution; settings: Streptococcus pneumoniae
[6] = test system: E. coli GC 2231; experiment: MIC, broth microdilution; settings: Escherichia coli
[7] = test system: E. faecalis GC 4555; experiment: MIC, broth microdilution; settings: Enterococcus faecalis
[8] = test system: E. faecalis GC 2267; experiment: MIC, broth microdilution; settings: Enterococcus faecalis
[9] = test system: S. typhimurium GC 2172; experiment: MIC, broth microdilution; settings: Salmonella enterica, TYPHIMURIUM
Experimental: (§1) Antimicrobial susceptibility testing. The in vitro activities of the antibiotics are determined by the broth microdilution method as recommended by the National Committee for Clinical Laboratory Standards (NCCLS) (1). Mueller-Hinton II broth (MHBII)(BBL Cockeysville, Md.) is the medium employed in the testing procedures. Microtiter plates containing serial dilutions of each antimicrobial agent are inoculated with each organism to yield the appropriate density (10^5 CFU/ml) in a 100 μl final volume. The plates are incubated for 18-22 hours at 35° C. in ambient air.
(§2) Representative compounds were first incubated in mouse serum for an hour prior to the in vitro testing against a panel of selected gram-positive and gram-negative bacteria strains. All compounds were also pre-incubated in water for an hour prior to testing as control.

[10] = test system: S. aureus GC 6467; experiment: MIC, broth microdilution; settings: Staphylococcus aureus
[11] = test system: E. coli GC 2272; experiment: MIC, broth microdilution; settings: Escherichia coli
[12] = test system: E. faecalis GC 2265; experiment: MIC, broth microdilution; settings: Enterococcus faecalis
Experimental: as §1, §2

[13] = test system: S. aureus GC 6469; experiment: MIC, broth microdilution; settings: Staphylococcus aureus
[14] = test system: E. faecium GC 2243; experiment: MIC, broth microdilution; settings: Enterococcus faecium
[15] = test system: S. agalactiae GC 4564; experiment: MIC, broth microdilution; settings: Streptococcus agalactiae
[16] = test system: E. coli GC 2203; experiment: MIC, broth microdilution; settings: Escherichia coli
[17] = test system: E. coli; experiment: Range of MIC for E. coli strains; settings: Escherichia coli
[18] = test system: E. coli GC 3226; experiment: MIC, broth microdilution; settings: Escherichia coli
[19] = test system: E. coli GC 4560; experiment: MIC, broth microdilution; settings: Escherichia coli
[20] = test system: Staph.; experiment: Range of MIC for Staph. strains, including MRSA; settings: Staphylococcus aureus
[21] = read-out: MINIMAL INHIBITORY CONCENTRATION MIC, pre-incubated in Human Serum
[22] = read-out: MINIMAL INHIBITORY CONCENTRATION MIC, pre-incubated in Mouse Serum
[23] = read-out: MINIMAL INHIBITORY CONCENTRATION MIC, pre-incubated in Water

Measured: MIC

CC(C)C(=O)OCOC(=O)N(CC(=O)Nc1cc(N(C)C)c2c(c1O)C(=O)C1=C(O)[C@]3(O)C(=O)C(C(N)=O)=C(O)[C@@H](N(C)C)[C@@H]3C[C@@H]1C2)C(C)(C)C [Example 45, ({[(2-{[(5aR,6aS,7S,10aS)-9-(aminocarbonyl)-4,7-bis(dimethylamino)-1,8,10a,11-tetrahydroxy-10,12-dioxo-5,5a,6,6a,7,10,10a,12-octahydrotetracen-2-yl]amino}-2-oxoethyl)(tert-butyl)amino]carbonyl}oxy)methyl 2-methylpropanoate]
2 µg/mL: [2]; GC6465, read-out: MINIMAL INHIBITORY CONCENTRATION MIC, pre-incubated in Mouse Serum | [7]; GC4555, read-out: MINIMAL INHIBITORY CONCENTRATION MIC, pre-incubated in Human Serum | [7]; GC4555, read-out: MINIMAL INHIBITORY CONCENTRATION MIC, pre-incubated in Water | [8]; GC2267, read-out: MINIMAL INHIBITORY CONCENTRATION MIC, pre-incubated in Water | [9]; [22] | [10]; GC6467, read-out: MINIMAL INHIBITORY CONCENTRATION MIC, pre-incubated in Water | [14]; GC2243, read-out: MINIMAL INHIBITORY CONCENTRATION MIC, pre-incubated in Water | [19]; GC4560, read-out: MINIMAL INHIBITORY CONCENTRATION MIC, pre-incubated in Water
0.12 to 1 µg/mL: [20]; read-out: Minimum inhibitory concentration (MIC), Staph (Human Serum)
8 µg/mL: [11]; GC2272, read-out: MINIMAL INHIBITORY CONCENTRATION MIC, pre-incubated in Human Serum | [18]; GC3226, read-out: MINIMAL INHIBITORY CONCENTRATION MIC, pre-incubated in Human Serum
32 µg/mL: [6]; GC2231, read-out: MINIMAL INHIBITORY CONCENTRATION MIC, pre-incubated in Water | [9]; [21] | [16]; GC2203, read-out: MINIMAL INHIBITORY CONCENTRATION MIC, pre-incubated in Water
0.25 to 1 µg/mL: [20]; MRSA, read-out: Range of MIC, Staph (Mouse Serum)
4 to 16 µg/mL: [17]; read-out: Minimum inhibitory concentration (MIC), E. coli (Human Serum)
> 64 µg/mL: [2]; GC6465, read-out: MINIMAL INHIBITORY CONCENTRATION MIC, pre-incubated in Water | [9]; [23]
16 µg/mL: [2]; GC6465, read-out: MINIMAL INHIBITORY CONCENTRATION MIC, pre-incubated in Human Serum | [4]; GC2232, read-out: MINIMAL INHIBITORY CONCENTRATION MIC, pre-incubated in Water | [11]; GC2272, read-out: MINIMAL INHIBITORY CONCENTRATION MIC, pre-incubated in Water
0.5 to 2 µg/mL: [17]; 20 h, read-out: Range of MIC, E. coli (Mouse Serum) | [20]; MRSA, read-out: Range of MIC, Staph (Water) | [20]; read-out: Minimum inhibitory concentration (MIC), Staph (Water)
0.25 µg/mL: [3]; GC6466, read-out: MINIMAL INHIBITORY CONCENTRATION MIC, pre-incubated in Human Serum | [3]; GC6466, read-out: MINIMAL INHIBITORY CONCENTRATION MIC, pre-incubated in Mouse Serum | [5]; [21] | [5]; [22] | [15]; GC4564, read-out: MINIMAL INHIBITORY CONCENTRATION MIC, pre-incubated in Mouse Serum | [19]; GC4560, read-out: MINIMAL INHIBITORY CONCENTRATION MIC, pre-incubated in Mouse Serum
0.5 µg/mL: [1]; GC4536, read-out: MINIMAL INHIBITORY CONCENTRATION MIC, pre-incubated in Human Serum | [1]; GC4536, read-out: MINIMAL INHIBITORY CONCENTRATION MIC, pre-incubated in Mouse Serum | [3]; GC6466, read-out: MINIMAL INHIBITORY CONCENTRATION MIC, pre-incubated in Water | [5]; [23] | [8]; GC2267, read-out: MINIMAL INHIBITORY CONCENTRATION MIC, pre-incubated in Mouse Serum | [12]; GC2265, read-out: MINIMAL INHIBITORY CONCENTRATION MIC, pre-incubated in Mouse Serum | [13]; GC6469, read-out: MINIMAL INHIBITORY CONCENTRATION MIC, pre-incubated in Human Serum | [14]; GC2243, read-out: MINIMAL INHIBITORY CONCENTRATION MIC, pre-incubated in Mouse Serum | [15]; GC4564, read-out: MINIMAL INHIBITORY CONCENTRATION MIC, pre-incubated in Human Serum | [15]; GC4564, read-out: MINIMAL INHIBITORY CONCENTRATION MIC, pre-incubated in Water | [16]; GC2203, read-out: MINIMAL INHIBITORY CONCENTRATION MIC, pre-incubated in Mouse Serum | [19]; GC4560, read-out: MINIMAL INHIBITORY CONCENTRATION MIC, pre-incubated in Human Serum
64 µg/mL: [18]; GC3226, read-out: MINIMAL INHIBITORY CONCENTRATION MIC, pre-incubated in Water
4 µg/mL: [4]; GC2232, read-out: MINIMAL INHIBITORY CONCENTRATION MIC, pre-incubated in Human Serum | [6]; GC2231, read-out: MINIMAL INHIBITORY CONCENTRATION MIC, pre-incubated in Human Serum | [12]; GC2265, read-out: MINIMAL INHIBITORY CONCENTRATION MIC, pre-incubated in Water | [16]; GC2203, read-out: MINIMAL INHIBITORY CONCENTRATION MIC, pre-incubated in Human Serum
1 µg/mL: [1]; GC4536, read-out: MINIMAL INHIBITORY CONCENTRATION MIC, pre-incubated in Water | [4]; GC2232, read-out: MINIMAL INHIBITORY CONCENTRATION MIC, pre-incubated in Mouse Serum | [6]; GC2231, read-out: MINIMAL INHIBITORY CONCENTRATION MIC, pre-incubated in Mouse Serum | [7]; GC4555, read-out: MINIMAL INHIBITORY CONCENTRATION MIC, pre-incubated in Mouse Serum | [8]; GC2267, read-out: MINIMAL INHIBITORY CONCENTRATION MIC, pre-incubated in Human Serum | [10]; GC6467, read-out: MINIMAL INHIBITORY CONCENTRATION MIC, pre-incubated in Human Serum | [10]; GC6467, read-out: MINIMAL INHIBITORY CONCENTRATION MIC, pre-incubated in Mouse Serum | [11]; GC2272, read-out: MINIMAL INHIBITORY CONCENTRATION MIC, pre-incubated in Mouse Serum | [12]; GC2265, read-out: MINIMAL INHIBITORY CONCENTRATION MIC, pre-incubated in Human Serum | [13]; GC6469, read-out: MINIMAL INHIBITORY CONCENTRATION MIC, pre-incubated in Mouse Serum | [13]; GC6469, read-out: MINIMAL INHIBITORY CONCENTRATION MIC, pre-incubated in Water | [14]; GC2243, read-out: MINIMAL INHIBITORY CONCENTRATION MIC, pre-incubated in Human Serum | [18]; GC3226, read-out: MINIMAL INHIBITORY CONCENTRATION MIC, pre-incubated in Mouse Serum
